From article PMC5666514 (Chemical Science, 2015)

System: HeLa cells
Assay: DEVDase (caspase 3/7) activity, Ac-DEVD-AFC substrate
Format: cell-based, human
Details: 100 nM, 16 h of treatment
Method: Data are mean ± s.e.m. […] Data are given as mean ± s.e.m. […] Non-treated cells were used as control. (F, right panel) Densitometric quantification of cleaved caspase 3 and cleaved PARP levels (relative to control, non-treated cells). β-actin was used for loading normalization. Data are mean ± s.e.m.
Thus, we used the fluorogenic substrate Ac–DEVD–AFC as an indicator of the activation of effector caspases, which are the executioners of apoptosis.
(E) HeLa cells were treated as in (D) and apoptosis was assessed by DEVDase activity (right panel) and western blot of PARP1 and caspase-3 (left panel). β-actin was used for loading normalization. Data are mean ± s.e.m.
DEVDase activity was determined in 30 g of RIPA total protein cell lysate (without protease
inhibitors). Cleavage of the fluorogenic substrated Ac-DEVD-AFC. Caspase 3 and PARP
cleavage were determined in 50 g RIPA total protein cell lysate of control and treated cells.

For `CO/C1=C\C(C)=C\[C@@H](C)[C@@H](O)[C@@H](C)C/C(C)=C/C=C/[C@H](OC)[C@@H]([C@@H](C)[C@@H](O)[C@H](C)[C@@]2(O)C[C@@H](O)[C@H](C)[C@@H](C(C)C)O2)OC1=O` [bafilomycin A1], the “apoptosis induction (DEVDase activity, PARP1 and caspase-3 western blot)” value was “induces apoptosis”.
